Test in all cases: relative viability (nuclei count vs DMSO), 5 days (fraction); higher = more cells survive
Compound in the assay “XMD13-2 + Palbociclib”: C1CC1C(=O)NC2=NNC3=C2C=CC(=C3)C4=CC(=CC=C4)C(=O)NC5CC5 [XMD13-2] + CC(=O)c1c(C)c2cnc(Nc3ccc(N4CCNCC4)cn3)nc2n(C2CCCC2)c1=O [Palbociclib] (partner 0.5 µM)
In a few lines: (§1)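 Relative viability was taken as the ratio of nuclei in treated wells to nuclei in vehicle wells. Lung cancer cell lines in 1536-well plates received compounds by pin tool one day after seeding, either one drug alone or a fixed anchor-drug dose plus five library-drug doses (not always all listed) in √10 steps. Nuclei were counted on 4× images after 5 days of treatment, and values are medians of duplicate plates.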

Compound in the assay “ALW-II-49-7 + Phenformin”: Cc1ccc(C(=O)Nc2cccc(C(F)(F)F)c2)cc1Nc1cncc(C(N)=O)c1 [ALW-II-49-7] + N=C(N)NC(=N)NCCc1ccccc1 [Phenformin] (partner 250 µM)
In a few lines: as §1

Compound in the assay “Dasatinib + Luminespib”: Cc1nc(Nc2ncc(C(=O)Nc3c(C)cccc3Cl)s2)cc(N2CCN(CCO)CC2)n1 [Dasatinib] + CCNC(=O)c1noc(-c2cc(C(C)C)c(O)cc2O)c1-c1ccc(CN2CCOCC2)cc1 [Luminespib] (partner 0.01 µM)
In a few lines: as §1

Compound in the assay “Dasatinib + Pemetrexed”: Cc1nc(Nc2ncc(C(=O)Nc3c(C)cccc3Cl)s2)cc(N2CCN(CCO)CC2)n1 [Dasatinib] + Nc1nc2[nH]cc(CCc3ccc(C(=O)N[C@@H](CCC(=O)O)C(=O)O)cc3)c2c(=O)[nH]1 [Pemetrexed] (partner 0.2 µM)
Summed up:
as §1

4 cell lines from the supplement of paper PMC10307832 can be followed below.

Take NCI-H460: the relative viability was 0.183 with XMD13-2 + Palbociclib (first compound 0.05 µM); 0.167 in the assay with XMD13-2 + Palbociclib (first compound 0.1581 µM); 0.21 with XMD13-2 + Palbociclib (first compound 0.5 µM); 0.233 with XMD13-2 + Palbociclib (first compound 1.581 µM); 0.286 with XMD13-2 + Palbociclib (first compound 5 µM); 0.425 with ALW-II-49-7 + Phenformin (first compound 0.08 µM). For the same cell line, the relative viability with ALW-II-49-7 + Phenformin (first compound 0.253 µM) came out at 0.414; in the assay with ALW-II-49-7 + Phenformin (first compound 0.8 µM) it was 0.561; in the assay with ALW-II-49-7 + Phenformin (first compound 2.53 µM), 0.559; with ALW-II-49-7 + Phenformin (first compound 8 µM), 0.372; in the assay with Dasatinib + Luminespib (first compound 0.005 µM), 0.0311; in the assay with Dasatinib + Luminespib (first compound 0.01581 µM), 0.031. In addition, the relative viability with Dasatinib + Luminespib (first compound 0.05 µM) amounted to 0.0288; in the assay with Dasatinib + Luminespib (first compound 0.1581 µM) it was 0.02; with Dasatinib + Luminespib (first compound 0.5 µM) it was 0.0207; with Dasatinib + Pemetrexed (first compound 0.005 µM) it was 0.0609; with Dasatinib + Pemetrexed (first compound 0.01581 µM) it was 0.062; with Dasatinib + Pemetrexed (first compound 0.05 µM), 0.0522. For the same cell line, the values for the relative viability in the assay with Dasatinib + Pemetrexed (first compound 0.1581 µM) and with Dasatinib + Pemetrexed (first compound 0.5 µM) were 0.0587 and 0.0433, respectively.
Regarding HARA, the relative viability with XMD13-2 + Palbociclib (first compound 0.05 µM) was determined as 0.265; with XMD13-2 + Palbociclib (first compound 0.1581 µM), 0.313; in the assay with XMD13-2 + Palbociclib (first compound 0.5 µM), 0.25; in the assay with XMD13-2 + Palbociclib (first compound 1.581 µM) it was 0.273; with XMD13-2 + Palbociclib (first compound 5 µM), 0.245; with ALW-II-49-7 + Phenformin (first compound 0.08 µM), 0.452. In addition, the relative viability was 0.476 with ALW-II-49-7 + Phenformin (first compound 0.253 µM); 0.345 with ALW-II-49-7 + Phenformin (first compound 0.8 µM); 0.461 in the assay with ALW-II-49-7 + Phenformin (first compound 2.53 µM); 0.482 with ALW-II-49-7 + Phenformin (first compound 8 µM); 0.774 with Dasatinib + Luminespib (first compound 0.005 µM); 0.552 with Dasatinib + Luminespib (first compound 0.01581 µM). Besides, the relative viability was determined as 0.413 with Dasatinib + Luminespib (first compound 0.05 µM); 0.207 with Dasatinib + Luminespib (first compound 0.1581 µM); 0.133 with Dasatinib + Luminespib (first compound 0.5 µM); 0.241 with Dasatinib + Pemetrexed (first compound 0.005 µM); 0.234 in the assay with Dasatinib + Pemetrexed (first compound 0.01581 µM); 0.229 in the assay with Dasatinib + Pemetrexed (first compound 0.05 µM). For the same cell line, the relative viability with Dasatinib + Pemetrexed (first compound 0.1581 µM) came out at 0.202; with Dasatinib + Pemetrexed (first compound 0.5 µM) it was 0.151.
On to NCI-H2170, for which the relative viability with XMD13-2 + Palbociclib (first compound 0.05 µM) was determined as 0.392; with XMD13-2 + Palbociclib (first compound 0.1581 µM), 0.4; in the assay with XMD13-2 + Palbociclib (first compound 0.5 µM), 0.399; in the assay with XMD13-2 + Palbociclib (first compound 1.581 µM), 0.407; with XMD13-2 + Palbociclib (first compound 5 µM), 0.319; with ALW-II-49-7 + Phenformin (first compound 0.08 µM), 0.411. The relative viability in the assay with ALW-II-49-7 + Phenformin (first compound 0.253 µM) turned out to be 0.435; in the assay with ALW-II-49-7 + Phenformin (first compound 0.8 µM), 0.432; with ALW-II-49-7 + Phenformin (first compound 2.53 µM), 0.387; with ALW-II-49-7 + Phenformin (first compound 8 µM), 0.346; with Dasatinib + Luminespib (first compound 0.005 µM) it was 0.497; with Dasatinib + Luminespib (first compound 0.01581 µM), 0.482. The relative viability was determined as 0.597 with Dasatinib + Luminespib (first compound 0.05 µM); 0.315 in the assay with Dasatinib + Luminespib (first compound 0.1581 µM); 0.273 in the assay with Dasatinib + Luminespib (first compound 0.5 µM); 0.255 with Dasatinib + Pemetrexed (first compound 0.005 µM); 0.257 in the assay with Dasatinib + Pemetrexed (first compound 0.01581 µM); 0.243 in the assay with Dasatinib + Pemetrexed (first compound 0.05 µM). Moreover, the values for the relative viability with Dasatinib + Pemetrexed (first compound 0.1581 µM) and with Dasatinib + Pemetrexed (first compound 0.5 µM) were 0.221 and 0.206, respectively.
NCI-H2126: the relative viability with XMD13-2 + Palbociclib (first compound 0.05 µM) was found to be 0.385; with XMD13-2 + Palbociclib (first compound 0.1581 µM), 0.398; in the assay with XMD13-2 + Palbociclib (first compound 0.5 µM), 0.309; in the assay with XMD13-2 + Palbociclib (first compound 1.581 µM), 0.336; with XMD13-2 + Palbociclib (first compound 5 µM), 0.323; in the assay with ALW-II-49-7 + Phenformin (first compound 0.08 µM) it was 0.507. The relative viability in the assay with ALW-II-49-7 + Phenformin (first compound 0.253 µM) worked out at 0.549; in the assay with ALW-II-49-7 + Phenformin (first compound 0.8 µM) it was 0.505; in the assay with ALW-II-49-7 + Phenformin (first compound 2.53 µM) it was 0.515; in the assay with ALW-II-49-7 + Phenformin (first compound 8 µM), 0.485; with Dasatinib + Luminespib (first compound 0.005 µM), 0.837; in the assay with Dasatinib + Luminespib (first compound 0.01581 µM), 0.792. Further, the relative viability worked out at 0.835 with Dasatinib + Luminespib (first compound 0.05 µM); 0.55 with Dasatinib + Luminespib (first compound 0.1581 µM); 0.375 in the assay with Dasatinib + Luminespib (first compound 0.5 µM); 0.736 in the assay with Dasatinib + Pemetrexed (first compound 0.005 µM); 0.608 in the assay with Dasatinib + Pemetrexed (first compound 0.01581 µM); 0.636 with Dasatinib + Pemetrexed (first compound 0.05 µM). Also, the relative viability in the assay with Dasatinib + Pemetrexed (first compound 0.1581 µM) came to 0.499; with Dasatinib + Pemetrexed (first compound 0.5 µM), 0.344.
